Experiments:
[1] = tested on: Cathepsin B in HdhQ111 mouse striatal cells; experiment: Lysosomal Cathepsin B activity; type: cell-based; conditions: 3 uM/day for 3 days
Description: Figure 5 Treatment of HV-3 reduces excessive mitophagy in HD cell cultures and HD mouse brains. (a) HdhQ7 and HdhQ111 cells were treated with control siRNA (con) or VCP siRNA (siVCP) for 48 h. Mitochondria were isolated and LC3 mitochondrial levels were determined by WB. Representative blots are from three independent experiments. The quantitation of LC3 II levels on mitochondria is provided on the right. VADC was used as a loading control. (b) Flag-VCP and GFP-LC3B were co-transfected into wild-type striatal cells. Mitochondria were isolated after 36 h of transfection. The GFP-LC3B levels on mitochondria were examined by WB. VDAC was used as a loading control. Representative blots are from three independent experiments. Histogram: quantitation of GFP-LC3B mitochondrial protein level. HdhQ7 and HdhQ111 cells were treated with control peptide TAT or peptide HV-3 (3 uM/day for 3 days). (c) HdhQ111 cells were transfected with GFP-LC3B for 24 h. The number of GFP-LC3B puncta was quantitated and shown in the histogram. Scale bars: 10 μm. (d) Enzyme activity of lysosomal Cathepsin B was measured using a Cathepsin B assay kit. […] (e) Mitochondrial mass was measured by the fluorescent density of Mitotracker green. […] Histogram: the number of mitophagosomes per 100 μm^2 was counted and quantitated. Fifteen random areas in the striatum of each animal were analyzed. […]

[2] = LC/MS detection of HV-3 in mouse brain and plasma; type: in vivo; conditions: LC/MS m/z 506.4
Description: The new figures above and related figure legends have all been added to the revised manuscript. The related discussion has been added on page 17 line 2 and line 5. The methods of ITC and immunoprecipitation with biotin-peptides have been added to the Method section (see pages 21-23) of […]
Comment 3: The in vivo use of TAT-tagged HV-3 peptide lacks essential PK/PD data. What is the PK/PD of the reagent with their osmotic pump delivery? The data in Supplemental Fig. 5B is simply unacceptable, with different background between control and HV-3, and with only a few cells shown and without any quantitation. Is there any long-term toxicity of such delivery? Did they measure adaptive immune response to the HV-3 peptide? And if there is such a response, do the immune reactions rather than inhibition of mHTT-VCP interactions underlying therapeutic effects? Response: For the analysis of PK/PD, we have to subcontract with bio-company. The cost will be a minimum of $80,000. Due to limited funds, we cannot afford such an expensive experiment. Working with the Mass Spectrometry Core Facility at Cleveland Clinic Foundation Research Center, we attempted to determine the concentration of HV-3 after treatment in mice by pump implantation. […]
by protein precipitation methods (see figure below). […]
proteins in mice after treatment. The data seem to be consistent with our findings that HV-3 binds to VCP. Because of current technical constraints to dissociate peptide from the binding proteins, we were not able to test the accurate concentration of the peptide HV-3 in brain tissues and plasma. Therefore, we […]
We would appreciate it if the reviewer could understand.
Based on the reviewer’s comment, in the revised manuscript, we removed the original supplemental […]
Regarding toxicity of HV3, we performed toxicity analysis of HV-3 in mice at Stanford University. […]
ions in positive electrospray ionization and the ion at 5 charged (m/z 506.4) has the highest intensity on the Shimadzu LC/MS 8050. (B) HV-3 at 5 charged (m/z 506.4) in positive electrospray ionization was monitored. […]

HD mouse striatal cells = experiment: Caspase-3 activity (apoptosis); type: cell-based; conditions: 24 h serum starvation, HV-3
Description: mouse striatal cells were treated with thapsigargin (1μM) or tunicamycin (10μ g/ml) for 16 hours i n the presence or absence of HV -3 (3 µM). GRP78 total protein levels were determined by western blot analysis. Representative blots of three independent experiments are shown. Actin was used here as a loading control. (b) Tw e n t y -four hours of serum starvation was performed in HD mouse striatal cells.
Caspase-3 activity analysis was performed in the indicated groups. Data are mean ± SEM of three independent experiments. (c) Flag-VCP and GFP-LC3B were co-transfected into HdhQ7 striatal cells.
Total lysates were isolated after 36 hours of transfection. The GFP -LC3B levels were examined by western blot analysis. Actin was used as a loading control. Histogram: quantitation of GFP-LC3B total protein level. Data are mean ± SEM of three independent experiments.
(1 picture or pasted object on this page, not shown here)

CSCC[C@H](NC(=O)[C@@H](NC(=O)[C@H](CC(C)C)NC(=O)[C@@H](NC(=O)[C@H](Cc1c[nH]cn1)NC(=O)CCCCCNC(=O)[C@H](CCCNC(=N)N)NC(=O)[C@H](CCCNC(=N)N)NC(=O)[C@H](CCCNC(=N)N)NC(=O)[C@H](CCC(N)=O)NC(=O)[C@H](CCCNC(=N)N)NC(=O)[C@H](CCCNC(=N)N)NC(=O)[C@H](CCCCN)NC(=O)[C@H](CCCCN)NC(=O)[C@H](CCCNC(=N)N)NC(=O)CNC(=O)[C@@H](N)Cc1ccc(O)cc1)C(C)C)C(C)C)C(=O)N[C@@H](CS)C(=O)N[C@@H](C)C(=O)N[C@H](C(N)=O)[C@@H](C)O [HV-3]
Cathepsin B activity [1]: reduced by treatment with HV-3 | HV-3 in supernatant of plasma after protein precipitation ([2]; mice, pump implantation): not detectable | HV-3 in total brain lysates, plasma and precipitated plasma proteins ([2]; mice, pump implantation): can be detected | HV-3 in brain total lysates over time ([2]; mouse brain total lysates without protein precipitation, legend prints HV-3 (1000 nM)): day, one week and two weeks after treatment | apoptosis (caspase-3 activity) (HD mouse striatal cells): did not affect apoptosis

Source: publication PMC5007466, “VCP recruitment to mitochondria causes mitophagy impairment and neurodegeneration in models of Huntington's disease” (Nature Communications, 2016)
